Data on 2 compounds can be found in patent US20250213546A1, “TREATING CANCER WITH SMALL MOLECULES THAT INHIBIT ACSS-2” (DREXEL UNIVERSITY, priority 2022, published 2025).

Where two headings read alike, the source gives them in different places.

One data set concerns the target hACSS-2 (Homo sapiens (Human), UniProt Q9NR19). The data set can be described thus: Surface plasmon resonance (SPR) binding to immobilized hACSS-2. The method, then:
SPR characterization. All binding assays were performed on a ProteOn XPR36 SPR Protein Interaction Array System (Bio-Rad Laboratories, Hercules, CA, USA). The instrument temperature was set at 25° C. for all kinetic analyses. ProteOn GLH sensor chips were preconditioned with two short pulses each (10 s) of 50 mM NaOH, 100 mM HCl, and 0.5% sodium dodecyl […]. Then the system was equilibrated with running buffer (1×PBS pH 7.4, 3% DMSO and 0.005% polysorbate 20). The surface of a GLH sensor chip was activated with a 1:100 dilution of a 1:1 mixture of 1-ethyl-3-(3-dimethylaminopropyl) carbodiimide hydrochloride (0.2 M) and sulfo-N-hydroxysuccinimide (0.05 M). […] Then, after unreacted protein had been washed out, excess active ester groups on the sensor surface were capped by a 5 min injection of 1M ethanolamine HCl (pH 8.0) at a flow rate of 5 μL/min. A reference surface was similarly created by immobilizing a nonspecific protein (IgG b12 anti-HIV-1 gp120; was obtained through the NIH AIDS Reagent Program, Division of AIDS, NIAID, NIH: Anti-HIV-1 gp120 Monoclonal (IgG1 b12) from Dr. Dennis Burton and Carlos Barbas) and was used as a background to correct nonspecific binding. Serial dilutions of hACSS-2 inhibitors were then prepared in the running buffer and injected at a flow rate of 100 μL/min, for a 50 s association phase, followed by up to a 5 min dissociation phase using the “one-shot kinetics” capability of the ProteOn instrument. Data were analyzed using the ProteOn Manager Software version 3.0 (Bio-Rad). The responses from the reference flow cell were subtracted to account for the nonspecific binding and injection artifacts. Experimental data were fitted to a simple 1:1 binding model. Experiments were performed in triplicate to detect kinetic and equilibrium dissociation constants (KD).
Overproduction of hACSS-2 was achieved using a prokaryotic expression system. […] The bacterial expressions were then spun down, the supernatant discarded, and the pellets resuspended. After the cells were lysed via sonication, the sample was subjected to ultracentrifugation, and the clarified lysate was applied to a Talon cobalt resin affinity column (Clonetech Laboratories, Mountain View, CA). The bound protein was eluted from the column using 1×PBS pH 7.4 with 0.3 M imidazole, then dialyzed overnight into 20 mM Tris-HCl pH 8.0, concentrated to 10 mg/mL, aliquoted, and stored at −80° C.
A general note: SPR reads the build-up and loss of mass on a sensor chip optically.

The nature of data set [1]: Human liver microsome stability. The data set is classed as in vitro ADME. Conditions: 60 min, given as fraction. The method, then:
(§1) Metabolic Stability and Plasma Stability. Test compound Working solution: 5 μL of compound stock solution (10 mM in dimethyl sulfoxide (DMSO)) were diluted with 495 μL of DMSO (Working solution concentration: 100 μM, 100% DMSO). Propantheline bromide Working solution: 5 μL of Propantheline bromide stock solution (10 mM in H2O) were diluted with 495 μL of H2O (Working solution concentration: 100 μM, 100% H2O)
Background: Liver microsomes are a subcellular fraction often used to study metabolism.

Another data set in a line: Human plasma stability. The data set is classed as in vitro ADME. Conditions: both sexes, 37° C., up to 120 min, read-out: Human Plasma Stability T1/2. As for the experimental part: as §1
Human plasma from 3 males and 3 females was obtained. Heparin was used as the anticoagulant. The pooled frozen plasma was thawed in a water bath at 37° C. prior to experiment. Plasma was centrifuged at 4000 rpm for 5 min and the clots were removed if any. Using an Apricot automation workstation, 98 μL/well of blank plasma were added to all 96-well reaction plates. (Blank, T0, T10, T30, T60 and T120). The appointed incubation time points are T0 (0 min), Tn (n=0, 10, 30, 60, 120 min). An Apricot automation workstation was used to add 2 μL/well of working solution (100 μM) to all reaction plates except Blank. (T0, T10, T30, T60 and T120). All reaction plates containing mixtures of compound and plasma were incubated at 37° C. in water bath. The reaction plates were incubated at 37° C., and timer was started. At the end of incubation, 500 μL of stop solution was added and mixed (200 ng/mL tolbutamide and 200 ng/ml labetalol in ACN) to precipitate protein. Each plate was sealed and shaken for 20 minutes. After shaking, each plate was centrifuged at 4000 rpm and 4° C. for 20 minutes. After centrifugation, an Apricot automation workstation was used to transfer 150 μL of supernatant from each reaction plate to its corresponding bioanaylsis plate. Each bioanalysis plate was sealed and shaken for 10 minutes prior to LC-MS/MS analysis. The % remaining of test compound after incubation in plasma was calculated using following equation: Remaining=100×(PAR at appointed incubation time/PAR at T0 time) where PAR is the peak area ratio of analyte versus internal standard (IS).

Another data set relates to MDR1-MDCK I cells. Briefly: in vitro. Conditions: dog, MDCK-MDR1, 1.5 h, 2 µM, pH 7.4. As for the experimental part:
(§2) MDCKI MDR1 cell permeability assessment was performed to mimic the blood brain barrier. MDR1-MDCK I cells were seeded onto […] (PET) in 96-well Corning insert systems at 2.5×10^5 cells/mL until to 4-7 days for confluent cell monolayer formation. The transport buffer in the study was HBSS with 10.0 mM HEPES at pH 7.40+0.05. Test compounds were tested at 2.00 μM bi-directionally in duplicate. […] Final DMSO concentration was adjusted to less than 1%. The plate was incubated for 1.5 hours in CO2 incubator at 37±1° C., with 5% CO2 at saturated humidity without shaking. All samples after mixed with acetonitrile containing internal standard were centrifuged at 3220×g for 10 min. For all samples, 150 μL supernatant solution was diluted with 150 μL ultra-pure water for LC-MS/MS analysis. In addition, the efflux ratio of each compound was also determined. Test and reference compounds were quantified by LC-MS/MS analysis based on the peak area ratio of analyte/IS. After transport assay, Lucifer yellow rejection assay are applied to determine the cell monolayer integrity. Buffers are removed from both apical and basolateral chambers, followed by the addition of 75 μL of 100 μM lucifer yellow in transport buffer and 250 μL transport buffer in apical and basolateral chambers, respectively. […] After 30 minutes incubation, 20 μL of lucifer yellow samples are taken from the apical sides, followed by the addition of 60 μL of Transport Buffer. And then 80 μL of lucifer yellow samples are taken from the basolateral sides.
(§3) The apparent permeability coefficient Papp (cm/s) was calculated using the equation: Papp=(dCr/dt)×Vr/(A×C0) where dCr/dt is the cumulative concentration of compound in the receiver chamber as a function of time (μM/s); Vr is the solution volume in the receiver chamber (0.075 mL on the apical side, 0.25 mL on the basolateral side); A is the surface area for the transport, i.e. 0.0804 cm^2 for the area of the monolayer; CO is the initial concentration in the donor chamber (μM). […] Percent of lucifer yellow in basolateral well is calculated using the equation: Where RFUApical and RFUBasolateral are the relative fluorescence unit values of lucifer yellow in the apical and basolateral wells, respectively; VApical and VBasolateral are the volume of apical and basolateral wells (0.075 mL and 0.25 mL), respectively. The % Lucifer Yellow should be less than 1.0.

Another data set has as its system MDR1. Briefly: in vitro. Conditions: dog. The method, then:
as §2, §3

The subject of a further data set is MDA-MB-231BR cells. Briefly: Clonogenicity assay. The data set is classed as cell-based. Conditions: after treatment. The method, then: Triple-negative brain trophic cells MDA-MB-231BR (Center for Cancer Research, National Cancer Institute) were cultured with 10% fetal bovine serum (FBS), 5% 10,000 Units/mL Penicillin-10,000 μg/mL Streptomycin, and 5% 200 mM L-Glutamine. […] For crystal violet staining, 5×10^4 cells were plated in to a 6-well plate and subjected to the treatments as described in the individual figures and then stained with 0.5% crystal violet prepared in a 1:1 methanol-water solution followed by dH2O washes.
To assess clonogenic survival, cells were cultured and detached in their respective growth media, then counted using a hemocytometer. 1,000 cells were plated in triplicate in 6-well plates in their respective growth media and allowed to form colonies. Cells were grown for 14 days. Upon conclusion of growth period, colonies were stained with crystal violet. Colony numbers were quantified based on number of colonies with >40 cells. For clonogenic survival based on drug exposure, 100,000 cells were plated in a 6-well plate, then 24 hours later treated with noted concentration of drug for 48 hours. After 48 hours, cells in each concentration condition were lifted, counted, and plated per the described clonogenic survival protocol and allowed to grow for noted length of time in noted growth media. […] Colony numbers were quantified based on number of colonies with >40 cells.

Another data set has as its system 4T1-BR. The data set can be described thus: Ex vivo BCBM mouse brain slice model, 4T1-BR. The data set is classed as cell-based. Conditions: bioluminescence. As for the experimental part: (§4) Ex vivo brain slice model. Organotypic hippocampal cultures were prepared as described previously (PMID: 34633392). Briefly, adult mice (6-8 week) or mice after 12 days following intracranial injection were decapitated and their brains rapidly removed into ice-cold (4° C.) sucrose-aCSF composed of the following (in mM): 280 sucrose, 5 KCl, 2 MgCl2, 1 CaCl2, 20 glucose, 10 HEPES, 5 Na+-ascorbate, 3 thiourea, 2 Na+-pyruvate; pH=7.3. Brains were blocked with a sharp scalpel and sliced into 250 μm sections using a McIlwain-type tissue chopper (Vibrotome inc). Four to six slices were placed onto each 0.4 μm Millicell tissue culture insert (Millipore) in six-well plates, 1 ml of medium containing the following: Neurobasal medium A (Gibco), 2% Gem21-Neuroplex supplement (Gemini), 1% N2 supplement (Gibco), 1% glutamine (Invitrogen), 0.5% glucose, 10 U/ml penicillin, and 100 μg/ml streptomycin (Invitrogen), placed underneath each insert. One-third to one half of the media was changed every 2 d. Tumor growth was monitored via bioluminescence imaging on the IVIS 200 system (Perkin Elmer) and results analyzed using Living Image software (Caliper Life Sciences, Waltham, MA, USA). […] Tissues were incubated at 37° C., 5% CO2 for 4 hours and absorbance at 490 nm was measured with Tecan Spark Microplate reader.

In a further data set the test system is MDA-MB-231-BR. The data set can be described thus: Ex vivo BCBM mouse brain slice model, MDA-MB-231-BR. Conditions: bioluminescence. The data set is classed as cell-based. As for the experimental part:
as §4

A further data set relates to FASN. Briefly: FASN expression (immunoblot). The data set is classed as cell-based, human. Conditions: BCBM cells. As for the experimental part:
ACSS-2 provides Acetyl-CoA for numerous metabolic processes vital for cancer proliferation. The human fatty acid synthase (FASN) is essential for BCBM growth and survival (FIG. 13A), and hACSS-2 does regulate FASN protein expression levels BCBM cells (FIG. 13B).
ACSS2 inhibitors on levels of lipid droplet storage. Briefly, cell lysates from 1-5×10^6 cells were prepared in radioimmune precipitation assay buffer (150 mM NaCl, 1% NP40, 0.5% DOC, 50 mM Tris HCL at pH 8, 0.1% SDS, 10% glycerol, 5 mM EDTA, 20 mM NaF, and 1 mM Na3 VO4) supplemented with 1 μg/ml each of pepstatin, leupeptin, aprotinin, and 200 μg/ml PMSF. Lysates were cleared by centrifugation at 16,000×g for 15 minutes at 4° C. and analyzed by SDS-PAGE and autoradiography with chemiluminescence. Proteins were analyzed by immunoblotting using primary antibodies against Fatty Acid Synthase (FASN) (Cell Signaling) and beta-Tubulin (Cell Signaling) (FIG. 16A).
In general terms: In western blotting, separated proteins are transferred to a membrane and probed.

Sequence of hACSS-2 (Q9NR19 whole entry): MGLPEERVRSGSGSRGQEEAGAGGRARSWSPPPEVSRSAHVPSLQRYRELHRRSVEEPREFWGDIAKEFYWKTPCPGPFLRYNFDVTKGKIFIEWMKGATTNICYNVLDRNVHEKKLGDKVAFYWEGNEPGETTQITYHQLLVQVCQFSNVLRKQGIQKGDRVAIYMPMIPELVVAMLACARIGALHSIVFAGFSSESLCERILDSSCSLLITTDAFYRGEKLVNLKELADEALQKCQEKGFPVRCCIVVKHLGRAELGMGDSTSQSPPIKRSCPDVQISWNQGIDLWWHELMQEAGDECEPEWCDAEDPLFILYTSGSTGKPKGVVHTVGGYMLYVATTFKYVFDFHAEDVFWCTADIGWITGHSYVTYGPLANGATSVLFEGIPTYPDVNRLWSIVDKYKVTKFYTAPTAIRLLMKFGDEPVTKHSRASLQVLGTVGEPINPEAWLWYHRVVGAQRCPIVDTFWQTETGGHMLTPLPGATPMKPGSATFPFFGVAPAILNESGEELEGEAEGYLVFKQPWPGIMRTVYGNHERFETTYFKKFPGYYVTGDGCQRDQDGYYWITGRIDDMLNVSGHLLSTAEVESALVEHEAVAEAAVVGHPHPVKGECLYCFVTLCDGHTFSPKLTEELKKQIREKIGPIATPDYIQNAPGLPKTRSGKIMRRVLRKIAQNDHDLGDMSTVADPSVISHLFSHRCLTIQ

Usually koff stands for the first-order rate constant of dissociation. For orientation: kon means the rate constant with which the complex forms. Read a low kon as slower complex formation. By efflux ratio is commonly meant a quotient of directional permeabilities that is used to spot active efflux. `N[C@H](C(=O)N1CCCC(c2ccccc2)(c2ccccc2)C1)C1CC1` [AD-8007] registered an off-rate (koff) on hACSS-2 (1:1 binding model, mean, n = 3) of 0.547 s⁻¹. The on-rate (kon) at hACSS-2 (1:1 binding model, mean, n = 3) is 4790 M⁻¹ s⁻¹. Besides, the Kd on hACSS-2 (Langmuir isotherm equilibrium fit, mean, n = 3, read-out: KD [μM] equilibrium) was determined as 117 µM; on hACSS-2 (global fit, mean, n = 3, read-out: KD [μM] kinetic/global), 149 µM; on hACSS-2 (read-out: Affinity (KD in μM) for hACSS-2 mean ± SD (n = 3), SPR, one site binding model isotherm, triplicate) it was 89 ± 20 µM. Further, the “Human Liver Microsome Stability Remaining(T = 60 min)” value in data set [1] came to 0.7723. Also, in data set [1] (NCF), the “Human Liver Microsome Stability Remaining(NCF = 60 min)” value came out at 0.9563. Besides, the half-life at 2 µM in “Human plasma stability” is greater than 4.82 h. In addition, the “Note (efflux / BBB assessment)” value in the data set with MDR1-MDCK I cells was “AD 8007 has a low efflux ratio”. Also, the efflux ratio at 1.5 h, 2 µM with MDR1 (MDCK-MDR1, pH 7.4) was determined as 8.96. In addition, the recovery at 1.5 h, 2 μM in the data set with MDR1 (MDCK-MDR1, pH 7.4, Mean % Solution Recovery A to B) stood at 81.3%; with MDR1 (MDCK-MDR1, pH 7.4, Mean % Solution Recovery B to A), 97%.
On to `O=C(CCN1CCCC(c2ccccc2)(c2ccccc2)C1)NC1CC1` [AD-2441], for which, in the data set with MDA-MB-231BR cells, the “reproductive cell death (clonogenicity)” value was “confirmed”. Besides, the “BCBM growth, 4T1-BR” value in the data set with 4T1-BR is recorded as “suppress BCBM growth”. The “BCBM growth, MDA-MB-231-BR” value in the data set on MDA-MB-231-BR is “suppress BCBM growth”. For the same compound, in the data set on FASN, the FASN expression levels entry is “downregulates FASN expression levels”.
